We go through four compounds from patent publication US20230265151A1, “GIP/GLP1 CO-AGONIST COMPOUNDS” (priority 2020, published 2023).

SMILES strings stand for the structures. Where two headings read alike, the source gives them in different places. *1 amine or outer side, *2 acyl side, *3 side chain or, on linkers, in order; H or OH if unused. Where a SMILES comes first, the peptide text is derived from it. Side-chain parts run from the residue outwards. [ ]: non-standard residue; d: D form. The star is where a group is joined. αMePhe(2-F) = C[C@](N)(Cc1ccccc1F)C(=O)O; γGlu = O=C(O)[C@H](CCC(=O)[*:2])N[*:1]; C14 diacid = O=C(O)CCCCCCCCCCCCC(=O)*; αMeY = C[C@](N)(Cc1ccc(O)cc1)C(=O)O; 4Pal = N[C@@H](Cc1ccncc1)C(=O)O; αMeL = CC(C)C[C@](C)(N)C(=O)O; Orn = NCCC[C@H](N)C(=O)O; AEEA = NCCOCCOCC(=O)O; Aib = CC(C)(N)C(=O)O

Holding throughout (type): cell-based
One test addresses T1, hGIPR (Homo sapiens, UniProt P48546).
T1 construct: expressed in transfected cells
T1 sequence (P48546 22-466): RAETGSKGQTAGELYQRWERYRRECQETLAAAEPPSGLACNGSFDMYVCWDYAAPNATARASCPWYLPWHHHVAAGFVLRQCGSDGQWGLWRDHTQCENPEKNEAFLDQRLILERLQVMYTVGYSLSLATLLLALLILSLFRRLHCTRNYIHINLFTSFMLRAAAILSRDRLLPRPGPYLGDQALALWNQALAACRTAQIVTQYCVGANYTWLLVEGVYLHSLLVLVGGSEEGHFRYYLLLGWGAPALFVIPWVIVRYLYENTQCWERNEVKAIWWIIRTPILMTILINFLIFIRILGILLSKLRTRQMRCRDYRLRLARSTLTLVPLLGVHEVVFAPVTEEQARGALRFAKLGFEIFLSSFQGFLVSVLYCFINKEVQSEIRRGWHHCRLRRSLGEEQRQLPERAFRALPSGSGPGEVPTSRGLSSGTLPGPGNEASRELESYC
Kind of test: Functional cAMP formation (HTRF) in HEK-293 clonal cells expressing hGIPR, 0.1% bovine casein, without or with 1.0% human serum albumin. The note with it: for Emax: read-out: hGIPR Emax, % ± SEM; for EC50: read-out: hGIPR EC50, nM (SEM, n). Put shortly:
(§1)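 Cells were stimulated with peptide for 30 min at 37° C, then intracellular cAMP was measured by competitive HTRF (665/620 nm ratio) and converted to nM using a cAMP standard curve. Relative EC50 and Emax came from four-parameter logistic fits of percent maximal response against peptide concentration.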
A general note: Cyclic AMP is a second messenger, typically raised through Gs and lowered through Gi signalling.

In the next test the target is T2, hGCGR (Homo sapiens, UniProt P47871).
T2 construct: expressed in transfected cells
Briefly: Functional cAMP formation (HTRF) in HEK-293 clonal cells expressing hGCGR, 0.1% bovine casein, without or with 1.0% human serum albumin. The following applies: read-out: hGCGR EC50, nM (SEM, n). In a few lines: as §1

A further test deals with hGLP-1R (Homo sapiens, UniProt P43220). Kind of test: Functional cAMP formation (HTRF) in HEK-293 clonal cells expressing hGLP-1R, 0.1% bovine casein, without or with 1.0% human serum albumin. Set-up: expressed in transfected cells. The following applies: for Emax: read-out: hGLP-1R Emax, % ± SEM; for EC50: geometric mean, read-out: hGLP-1R EC50, nM (SEM, n). In a few lines: as §1

The mark [1] stands for this setting: HEK293, 0.1% bovine casein and 1.0% human serum albumin, 37° C., percent of maximal response to GIP(1-42)NH2.
The mark [2] stands for this setting: cAMP, incubated at 37° C., 0.1% bovine casein (no human serum albumin), geometric mean.
Setting [3] is: 0.1% bovine casein and 1.0% human serum albumin, 37° C., geometric mean.
The mark [4] stands for this setting: HEK293, 0.1% bovine casein and 1.0% human serum albumin, 37° C., percent of maximal response to GLP-1(7-36)NH2.
Where [5] appears, read: cAMP, incubated at 37° C., 0.1% bovine casein (no human serum albumin).
The mark [6] stands for this setting: cAMP, 37° C., 0.1% bovine casein (no human serum albumin), geometric mean.
Setting [7] is: cAMP, 37° C., 0.1% bovine casein and 1.0% human serum albumin, geometric mean (SEM, n).
Setting [8] is: HEK293, percent of maximal response to GIP(1-42)NH2, 37° C., 0.1% bovine casein, arithmetic mean.
Setting [9] is: HEK293, percent of maximal response to GLP-1(7-36)NH2, 37° C., 0.1% bovine casein, arithmetic mean.

T2 sequence (P47871 26-477): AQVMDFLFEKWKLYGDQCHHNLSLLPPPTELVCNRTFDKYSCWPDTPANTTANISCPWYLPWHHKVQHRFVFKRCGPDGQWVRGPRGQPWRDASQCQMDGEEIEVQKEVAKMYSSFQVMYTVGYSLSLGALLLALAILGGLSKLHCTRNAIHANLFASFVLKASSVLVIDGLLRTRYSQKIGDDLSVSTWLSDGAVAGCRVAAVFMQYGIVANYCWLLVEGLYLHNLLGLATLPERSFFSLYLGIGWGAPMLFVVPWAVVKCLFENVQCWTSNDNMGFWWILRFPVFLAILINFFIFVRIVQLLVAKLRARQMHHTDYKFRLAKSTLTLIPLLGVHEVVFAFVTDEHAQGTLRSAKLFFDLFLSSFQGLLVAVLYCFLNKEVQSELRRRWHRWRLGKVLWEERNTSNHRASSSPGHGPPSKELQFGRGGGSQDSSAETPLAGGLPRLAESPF
hGLP-1R, sequence (P43220 24-463): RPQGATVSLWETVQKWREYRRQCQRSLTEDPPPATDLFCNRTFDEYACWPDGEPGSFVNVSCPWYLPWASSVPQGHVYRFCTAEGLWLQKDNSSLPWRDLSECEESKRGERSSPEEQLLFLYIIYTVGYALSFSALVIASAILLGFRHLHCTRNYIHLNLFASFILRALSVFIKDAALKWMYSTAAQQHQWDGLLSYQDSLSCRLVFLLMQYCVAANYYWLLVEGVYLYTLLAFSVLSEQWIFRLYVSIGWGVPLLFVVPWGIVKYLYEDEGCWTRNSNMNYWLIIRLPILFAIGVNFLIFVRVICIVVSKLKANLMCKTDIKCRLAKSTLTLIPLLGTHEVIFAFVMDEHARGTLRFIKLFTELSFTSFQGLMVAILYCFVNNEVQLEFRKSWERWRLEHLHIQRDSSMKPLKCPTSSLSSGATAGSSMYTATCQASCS

Take `CC[C@H](C)[C@H](NC(=O)[C@H](CCCN)NC(=O)[C@H](CC(=O)O)NC(=O)[C@H](CC(C)C)NC(=O)[C@](C)(CC(C)C)NC(=O)[C@@H](NC(=O)C(C)(C)NC(=O)[C@H](Cc1ccc(O)cc1)NC(=O)[C@H](CC(=O)O)NC(=O)[C@H](CO)NC(=O)[C@@H](NC(=O)[C@](C)(Cc1ccccc1F)NC(=O)[C@@H](NC(=O)CNC(=O)[C@H](CCC(=O)O)NC(=O)C(C)(C)NC(=O)[C@@H](N)Cc1ccc(O)cc1)[C@@H](C)O)[C@@H](C)O)[C@@H](C)CC)C(=O)N[C@@H](C)C(=O)N[C@@H](CCC(N)=O)C(=O)NC(C)(C)C(=O)N[C@@H](CCCCNC(=O)COCCOCCNC(=O)COCCOCCNC(=O)CC[C@H](NC(=O)CCCCCCCCCCCCC(=O)O)C(=O)O)C(=O)N[C@@H](Cc1ccccc1)C(=O)N[C@H](C(=O)N[C@H](CCC(=O)O)C(=O)N[C@@](C)(Cc1ccc(O)cc1)C(=O)N[C@@H](CC(C)C)C(=O)N[C@H](C(=O)N[C@@H](CCC(=O)O)C(=O)NCC(=O)NCC(=O)N1CCC[C@H]1C(=O)N[C@@H](CO)C(=O)N[C@@H](CO)C(=O)NCC(=O)N[C@@H](C)C(=O)N1CCC[C@H]1C(=O)N1CCC[C@H]1C(=O)N1CCC[C@H]1C(=O)N[C@@H](CO)C(=O)N[C@@H](CCCCNC(=O)COCCOCCNC(=O)COCCOCCNC(=O)CC[C@H](NC(=O)CCCCCCCCCCCCC(=O)O)C(=O)O)C(N)=O)[C@@H](C)CC)[C@@H](C)CC` [Example 235] (H-Y[Aib]EGT[αMePhe(2-F)]TSDY[Aib]I[αMeL]LD[Orn]IAQ[Aib]K([AEEA-AEEA-γGlu-C14 diacid])FI[dE][αMeY]LIEGGPSSGAPPPSK([AEEA-AEEA-γGlu-C14 diacid])-NH2; N-terminus assumed): the Emax (in general, the maximal effect, on the per cent scale that the assay sets) stood at 92.2% on hGIPR (setting [1]) and 152% at hGLP-1R (setting [4]). Besides, the EC50 (commonly the concentration giving half of the maximal effect) at hGIPR (setting [2]) was 0.0168 nM; at hGCGR (setting [3]) it was > 9950 nM; at hGCGR (setting [2]) it was > 9950 nM; on hGLP-1R (setting [5]) it was 0.295 nM.

In the case of `CC[C@H](C)[C@H](NC(=O)[C@H](CCCN)NC(=O)[C@H](CC(=O)O)NC(=O)[C@H](CC(C)C)NC(=O)[C@](C)(CC(C)C)NC(=O)[C@@H](NC(=O)C(C)(C)NC(=O)[C@H](Cc1ccc(O)cc1)NC(=O)[C@H](CC(=O)O)NC(=O)[C@H](CO)NC(=O)[C@@H](NC(=O)[C@](C)(Cc1ccccc1F)NC(=O)[C@@H](NC(=O)CNC(=O)[C@H](CCC(=O)O)NC(=O)C(C)(C)NC(=O)[C@@H](N)Cc1ccc(O)cc1)[C@@H](C)O)[C@@H](C)O)[C@@H](C)CC)C(=O)N[C@@H](C)C(=O)N[C@@H](CCC(N)=O)C(=O)NC(C)(C)C(=O)N[C@@H](CCC(=O)O)C(=O)N[C@@H](Cc1ccccc1)C(=O)N[C@H](C(=O)N[C@@H](CCCCNC(=O)COCCOCCNC(=O)COCCOCCNC(=O)CC[C@H](NC(=O)COCCOCCNC(=O)CCCCCCCCCCCCC(=O)O)C(=O)O)C(=O)N[C@@](C)(Cc1ccc(O)cc1)C(=O)N[C@@H](CC(C)C)C(=O)N[C@H](C(=O)N[C@@H](CCCCNC(=O)COCCOCCNC(=O)COCCOCCNC(=O)CC[C@H](NC(=O)COCCOCCNC(=O)CCCCCCCCCCCCC(=O)O)C(=O)O)C(=O)NCC(=O)NCC(=O)N1CCC[C@H]1C(=O)N[C@@H](CO)C(=O)N[C@@H](CO)C(=O)NCC(=O)N[C@@H](C)C(=O)N1CCC[C@H]1C(=O)N1CCC[C@H]1C(=O)N1CCC[C@H]1C(=O)N[C@@H](CO)C(N)=O)[C@@H](C)CC)[C@@H](C)CC` [Example 363], the Emax was 91.1% on hGIPR (HEK293, cAMP, 37° C., 0.1% bovine casein and 1.0% human serum albumin, percent of maximal response to GIP(1-42)NH2); 111% at hGIPR (HEK293, cAMP, 37° C., 0.1% bovine casein, percent of maximal response to GIP(1-42)NH2, arithmetic mean); 111% at hGLP-1R (HEK293, cAMP, 37° C., 0.1% bovine casein and 1.0% human serum albumin, percent of maximal response to GLP-1(7-36)NH2). Besides, the concentration giving a half-maximal response (EC50) was 0.0183 nM at hGIPR (setting [6]); 0.976 nM at hGIPR (setting [7]); > 9950 nM on hGCGR (setting [6]); > 9950 nM at hGCGR (setting [7]); 0.34 nM on hGLP-1R (cAMP, 37° C., 0.1% bovine casein (no human serum albumin)).

Take `CC[C@H](C)[C@H](NC(=O)[C@H](CC(C)C)NC(=O)[C@](C)(Cc1ccc(O)cc1)NC(=O)[C@@H](CCC(=O)O)NC(=O)[C@@H](NC(=O)[C@H](Cc1ccccc1)NC(=O)[C@H](CCC(=O)O)NC(=O)C(C)(C)NC(=O)[C@H](CCC(N)=O)NC(=O)[C@H](C)NC(=O)[C@H](CCCCNC(=O)COCCOCCNC(=O)COCCOCCNC(=O)CC[C@H](NC(=O)CCCCCCCCCCCCC(=O)O)C(=O)O)NC(=O)[C@H](CCCN)NC(=O)[C@H](CC(=O)O)NC(=O)[C@H](CC(C)C)NC(=O)[C@](C)(CC(C)C)NC(=O)[C@@H](NC(=O)[C@H](CO)NC(=O)[C@H](Cc1ccncc1)NC(=O)[C@H](CC(=O)O)NC(=O)[C@H](CO)NC(=O)[C@@H](NC(=O)[C@](C)(Cc1ccccc1F)NC(=O)[C@@H](NC(=O)CNC(=O)[C@H](CCC(=O)O)NC(=O)C(C)(C)NC(=O)[C@@H](N)Cc1ccc(O)cc1)[C@@H](C)O)[C@@H](C)O)[C@@H](C)CC)[C@@H](C)CC)C(=O)N[C@@H](CCC(=O)O)C(=O)NCC(=O)NCC(=O)N[C@@H](CCCCNC(=O)COCCOCCNC(=O)COCCOCCNC(=O)CC[C@H](NC(=O)CCCCCCCCCCCCC(=O)O)C(=O)O)C(N)=O` [Example 184] (H-Y[Aib]EGT[αMePhe(2-F)]TSD[4Pal]SI[αMeL]LD[Orn]K([AEEA-AEEA-γGlu-C14 diacid])AQ[Aib]EFI[dE][αMeY]LIEGGK([AEEA-AEEA-γGlu-C14 diacid])-NH2): the EC50 at hGIPR (setting [3]) is 2.46 nM; at hGIPR (setting [2]) it was 0.0354 nM; at hGCGR (setting [3]) it was > 9950 nM; on hGCGR (setting [2]) it was > 9950 nM; on hGLP-1R (0.1% bovine casein and 1.0% human serum albumin, 37° C.), 119 nM; on hGLP-1R (setting [5]), 1.82 nM. The maximum response (Emax) at hGIPR (setting [1]) amounted to 81.2%; on hGIPR (setting [8]), 95.2 ± 1.13%; on hGLP-1R (setting [4]), 87.8%; at hGLP-1R (setting [9]), 96.8 ± 12%.

As for `CC[C@H](C)[C@H](NC(=O)[C@H](CC(C)C)NC(=O)[C@](C)(Cc1ccc(O)cc1)NC(=O)[C@@H](CCC(=O)O)NC(=O)[C@@H](NC(=O)[C@H](Cc1ccccc1)NC(=O)[C@H](CCC(=O)O)NC(=O)C(C)(C)NC(=O)[C@H](CCC(N)=O)NC(=O)[C@H](C)NC(=O)[C@H](CCCCNC(=O)COCCOCCNC(=O)COCCOCCNC(=O)CC[C@H](NC(=O)CCCCCCCCCCCCC(=O)O)C(=O)O)NC(=O)[C@H](CCCN)NC(=O)[C@H](CC(=O)O)NC(=O)[C@H](CC(C)C)NC(=O)[C@](C)(CC(C)C)NC(=O)[C@@H](NC(=O)[C@@H](NC(=O)[C@H](Cc1ccncc1)NC(=O)[C@H](CC(=O)O)NC(=O)[C@H](CO)NC(=O)[C@@H](NC(=O)[C@](C)(Cc1ccccc1F)NC(=O)[C@@H](NC(=O)CNC(=O)[C@H](CCC(=O)O)NC(=O)C(C)(C)NC(=O)[C@@H](N)Cc1ccc(O)cc1)[C@@H](C)O)[C@@H](C)O)C(C)(C)C)[C@@H](C)CC)[C@@H](C)CC)C(=O)N[C@@H](CCC(=O)O)C(=O)NCC(=O)NCC(=O)N[C@@H](CCCCNC(=O)COCCOCCNC(=O)COCCOCCNC(=O)CC[C@H](NC(=O)CCCCCCCCCCCCC(=O)O)C(=O)O)C(=O)N[C@@H](CO)C(=O)N[C@@H](CO)C(=O)NCC(=O)N[C@@H](C)C(=O)N1CCC[C@H]1C(=O)N1CCC[C@H]1C(=O)N1CCC[C@H]1C(=O)N[C@@H](CO)C(N)=O` [Example 202], the Emax at hGIPR (setting [1]) is 75.3%; on hGIPR (setting [8]), 86%; on hGLP-1R (setting [4]) it was 109%; at hGLP-1R (setting [9]), 92.2%. Also, the concentration giving a half-maximal response (EC50) on hGCGR (setting [3]) and at hGCGR (setting [2]) was > 9950 nM throughout.
